Reference: patent US20220079984A1, “METHOD FOR TREATING CANCER WITH KIDNEY PROTECTION” (Renibus Therapeutics, Inc., priority 2020, published 2022)

Tests used:
mice = assay: SnPP preconditioning against cisplatin nephrotoxicity; assay type: in vivo; set-up: P creatinine: unit not given here
CD-1 mice = assay: RBT-3 preconditioning: cisplatin nephrotoxicity and renal cisplatin uptake; assay type: in vivo; details: cisplatin 15 mg/Kg IP ± 1 mg RBT-3 IV 18 hrs before, 3 days post cisplatin, mean ± SEM
Experimental: 4. […] Mice were injected with 1 mg RBT-3 or saline vehicle via the tail vein (n, 5 each). […] Free food and water were provided throughout. […] Plasma levels of the proximal tubule enzyme, N-acetyl glucosamidase (“NAG”), were also assessed (BioAssay Systems #DNAG-100; Hayward, Calif.). […] Statistics. Each sample was assayed in duplicate with the average being used for data presentation and analysis. The human hepcidin data are presented as means±1 SD. Baseline plasma hepcidin values for the HV and CKD groups were compared by unpaired Student's t test. Comparisons of hepcidin levels over time were analyzed by ANOVA for repeated measures with 95% confidence intervals being presented. Baseline demographic data were compared by unpaired Student's t test. Mouse data are given as means±1 SEM.

[1] = SnPP 1 umole or vehicle day zero, cisplatin 15 mg/kg day 1, 3 days post cisplatin

Row | SMILES | HO-1 mRNA (mice; 3 days post cisplatin) | IL-6 mRNA (mice; 3 days post cisplatin) | MCP-1 mRNA (mice; 3 days post cisplatin) | NGAL mRNA (mice; 3 days post cisplatin) | P21 mRNAs (mice; 3 days post cisplatin) | BUN (mice; [1]) | P creatinine (mice; [1]) | Tissue LDH (mice; renal cortical, 3 days post cisplatin) | BUN (CD-1 mice) | Creat (CD-1 mice) | Plasma NAG (CD-1 mice) | protection in cisplatin treated mice, compared to cisplatin alone (mice; P<0.01)
1 | N.N.[Cl][Pt][Cl] [Cisplatin, cis-diammine dichloroplatinum II] | 1.16 ± 0.28 | 2.51 ± 1.65 | 10.9 ± 5.7 | 16.9 ± 12 | 4.23 ± 0.61 | 103 ± 22 | 0.94 ± 0.41 | 754 ± 54 | 105 ± 11 mg/dL | 0.7 ± 0.1 mg/dL | 19.5 ± 0.8 activity units/liter | –
2 | C=Cc1c2[n-]c(c1C)/C=c1\[n-]/c(c(C)c1C=C)=C\c1[n-]c(c(CCC(=O)O)c1C)/C=c1\[n-]c(c(C)c1CCC(=O)O)=C2.[Sn+4] [SnPP, tin protoporphyrin] | – | – | – | – | – | – | – | – | – | – | – | statistically significant protection
